Test results reported in ChEMBL document CHEMBL1145250, “Discovery of 4-(dimethylamino)quinazolines as potent and selective antagonists for the melanin-concentrating hormone receptor 1” (Bioorg Med Chem Lett, 2005).

Columns and labels:
[1] = target: T1, Neuropeptide Y receptor type 5 (Homo sapiens, UniProt Q15761); experiment: Inhibitory activity against constitutively activated human Neuropeptide Y receptor Y5 transiently expressed in COS-1 cells using [125I]PYY; format: cell-based
T1 sequence (Q15761 whole entry): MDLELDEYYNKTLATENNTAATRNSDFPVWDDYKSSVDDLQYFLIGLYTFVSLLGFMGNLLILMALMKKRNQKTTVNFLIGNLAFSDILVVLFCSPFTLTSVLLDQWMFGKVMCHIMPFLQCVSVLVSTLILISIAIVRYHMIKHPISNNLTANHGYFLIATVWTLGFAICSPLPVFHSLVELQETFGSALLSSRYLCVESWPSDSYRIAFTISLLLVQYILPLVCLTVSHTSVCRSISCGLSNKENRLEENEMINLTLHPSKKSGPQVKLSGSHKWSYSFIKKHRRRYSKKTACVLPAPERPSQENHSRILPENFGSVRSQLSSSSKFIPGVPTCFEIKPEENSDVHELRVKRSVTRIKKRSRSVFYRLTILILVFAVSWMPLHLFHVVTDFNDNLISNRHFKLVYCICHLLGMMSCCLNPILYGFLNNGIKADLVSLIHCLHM

[2] = target: T2, Melanin-concentrating hormone receptor 1 (Homo sapiens, UniProt Q99705); experiment: Inhibitory activity against mutated constitutively activated human Melanin concentrating hormone receptor 1 (CA-MCH-R1) stably expressed in HEK293 cells using [125I](Phe13, Tyr19) MCH; format: cell-based
Target sequence in this assay (Q99705 whole entry, looked up): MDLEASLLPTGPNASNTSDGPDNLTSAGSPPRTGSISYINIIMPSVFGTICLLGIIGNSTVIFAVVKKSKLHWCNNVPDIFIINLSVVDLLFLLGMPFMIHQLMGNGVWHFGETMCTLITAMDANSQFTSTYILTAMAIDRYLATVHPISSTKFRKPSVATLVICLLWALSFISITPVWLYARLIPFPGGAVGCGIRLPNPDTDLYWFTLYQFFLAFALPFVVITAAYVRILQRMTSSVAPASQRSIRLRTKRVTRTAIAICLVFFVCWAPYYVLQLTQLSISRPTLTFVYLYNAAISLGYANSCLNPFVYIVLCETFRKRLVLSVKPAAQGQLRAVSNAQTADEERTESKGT

[3] = target: Alpha-2A adrenergic receptor (Homo sapiens, UniProt P08913); experiment: Inhibitory activity against constitutively activated human Alpha-2A adrenergic receptor transiently expressed in COS-1 cells using [3H]MK-912; format: cell-based
[4] = target: T2, Melanin-concentrating hormone receptor 1; experiment: Inhibitory activity against mutated constitutively activated human Melanin concentrating hormone receptor 1 (CA-MCH-R1) stably expressed in HEK293 cells using [125I](Phe13, Tyr19) MCH (n=8); format: cell-based
Target sequence in this assay (Q99705 whole entry, looked up): as above

[5] = target: T2, Melanin-concentrating hormone receptor 1; experiment: Inhibitory activity against human wild type Melanin concentrating hormone receptor 1 (CA-MCH-R1) stably expressed in HEK293 cells using [125I](Phe13, Tyr19) MCH (n=3); format: cell-based
Target sequence in this assay (Q99705 whole entry): as the sequence (Q99705 whole entry, looked up) above

[6] = target: T2, Melanin-concentrating hormone receptor 1; experiment: Inhibitory activity against human constitutively activated Melanin concentrating hormone receptor 1 induced calcium flux stably expressed in HEK293 cells (n=6)
Target sequence in this assay (Q99705 whole entry): as the sequence (Q99705 whole entry, looked up) above

Alpha-2A adrenergic receptor, sequence (P08913 whole entry, looked up): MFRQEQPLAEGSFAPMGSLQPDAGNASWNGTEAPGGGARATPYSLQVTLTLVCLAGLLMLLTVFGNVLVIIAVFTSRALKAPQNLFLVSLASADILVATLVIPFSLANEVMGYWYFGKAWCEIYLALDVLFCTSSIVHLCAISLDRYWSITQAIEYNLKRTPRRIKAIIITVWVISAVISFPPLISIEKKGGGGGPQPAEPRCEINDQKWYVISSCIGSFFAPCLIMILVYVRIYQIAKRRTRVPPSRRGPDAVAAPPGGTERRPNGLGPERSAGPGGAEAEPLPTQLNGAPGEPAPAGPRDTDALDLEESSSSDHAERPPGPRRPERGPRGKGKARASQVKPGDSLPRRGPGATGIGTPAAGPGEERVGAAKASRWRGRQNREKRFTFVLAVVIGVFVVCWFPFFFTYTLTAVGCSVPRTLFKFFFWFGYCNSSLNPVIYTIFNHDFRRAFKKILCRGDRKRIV

Row | IC50 [1] [µM] | IC50 [2] [µM] | IC50 [3] [µM] | IC50 [4] [µM] | IC50 [5] [µM] | IC50 [6] [µM] | SMILES
1 | 3 | 6 | 0.0056 | – | – | – | CN(C)c1nc(NCC2CCN(S(=O)(=O)c3ccc(Br)cc3OC(F)(F)F)CC2)nc2ccccc12
2 | 0.15 | 1.5 | 0.11 | – | – | – | CN(C)c1nc(NC2CCC(CNS(=O)(=O)c3ccc(Br)cc3OC(F)(F)F)CC2)nc2ccccc12 (stereo not given)
3 | 0.041 | > 10 | 0.086 | – | – | – | CN(C)c1nc(NCC2CCC(CNS(C)(=O)=O)CC2)nc2ccccc12 (stereo not given)
4 | 8.9 | 0.25 | 0.17 | – | – | – | CN(C)c1nc(NC2CCN(S(=O)(=O)c3ccc(Br)cc3OC(F)(F)F)CC2)nc2ccccc12
5 | 0.0016 | 1.9 | 0.1 | – | – | – | Nc1nc(NCC2CCC(CNS(=O)(=O)c3ccc(Br)cc3OC(F)(F)F)CC2)nc2ccccc12 (trans isomer)
6 | 0.0027 | – | 0.0077 | 0.16 | 0.2 | 0.14 | CN(C)c1nc(NCC2CCC(CNS(=O)(=O)c3ccc(Br)cc3OC(F)(F)F)CC2)nc2ccccc12 (trans isomer)
7 | 0.0049 | 2.9 | 0.058 | – | – | – | CCCCS(=O)(=O)NCC1CCC(CNc2nc(N(C)C)c3ccccc3n2)CC1 (trans isomer)
8 | 0.031 | 2.2 | 0.047 | – | – | – | CN(C)c1nc(NC2CCC(NS(=O)(=O)c3ccc(Br)cc3OC(F)(F)F)CC2)nc2ccccc12 (trans isomer)
9 | 0.0025 | 0.81 | 0.021 | – | – | – | CN(C)c1nc(NCC2CCC(NS(=O)(=O)c3ccc(Br)cc3OC(F)(F)F)CC2)nc2ccccc12 (trans isomer)
10 | – | 6.7 | – | – | – | – | CCCCCCCCS(=O)(=O)NCC1CCC(CNc2nc(N(C)C)c3ccccc3n2)CC1 (trans isomer)
11 | 0.078 | > 10 | 0.14 | – | – | – | O=S(=O)(NCC1CCC(CNc2ncc3ccccc3n2)CC1)c1ccc(Br)cc1OC(F)(F)F (trans isomer)
12 | – | > 10 | – | – | – | – | CC(C)S(=O)(=O)NCC1CCC(CNc2nc(N(C)C)c3ccccc3n2)CC1 (trans isomer)
13 | – | 3.5 | – | – | – | – | Nc1nc(NC[C@H]2CC[C@H](CNS(=O)(=O)c3cccc4ccccc34)CC2)nc2ccccc12 [CGP-71683A]
